19 compounds from patent publication US7714017B2, “Carboxylic acid peri-substituted bicyclics for occlusive artery disease” (Decode Genetics, EHF, priority 2004, dated 2010) can be followed below.

A word on the IC50: it is the concentration at which inhibition is half-maximal.

In the test the target is T1, prostanoid EP3 receptors (Homo sapiens, UniProt P43115).
T1 sequence (P43115 1-390): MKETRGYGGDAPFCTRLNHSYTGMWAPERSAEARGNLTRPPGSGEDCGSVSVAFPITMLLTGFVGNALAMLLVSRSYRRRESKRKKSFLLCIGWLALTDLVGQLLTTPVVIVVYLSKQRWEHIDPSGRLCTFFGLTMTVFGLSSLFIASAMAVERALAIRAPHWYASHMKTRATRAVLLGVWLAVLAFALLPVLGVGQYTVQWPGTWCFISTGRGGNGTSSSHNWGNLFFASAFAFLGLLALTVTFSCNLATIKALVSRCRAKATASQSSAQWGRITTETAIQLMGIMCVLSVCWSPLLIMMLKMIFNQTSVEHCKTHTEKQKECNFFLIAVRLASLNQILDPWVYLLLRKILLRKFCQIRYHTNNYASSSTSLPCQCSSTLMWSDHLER
In words: binding on prostanoid EP3 receptors (method of Abramovitz et al.). Conditions: Chart 1, read-out: Activity (EP3 receptor binding IC50 class). Here is the method:
The compounds of the invention were assayed for their binding on prostanoid EP3 receptors according to the method of Abramovitz et al. [Bioch. Biophys. Acta, 1473, 285-293 (2000)]. […] Compounds with IC50<1 μM are shown as +++; compounds with IC50 1-10 μM are shown as ++; and compounds with IC50>10 μM are shown as +.
The compounds of the invention were assayed for their binding on prostanoid EP3 receptors according to the method of Abramovitz et al. [Bioch. Biophys. Acta. 1473, 285-293 (2000)]. […] Compounds with IC50<1 μM are shown as +++; compounds with IC50 1-10 μM are shown as ++; and compounds with IC50>10 μM are shown as +.

For `Cn1cc(/C=C/C(=O)O)c2c(Oc3ccc(Cl)cc3)cccc21` [Compound A41, (E)-3-[4-(4-Chloro-phenoxy)-1-methyl-1H-indol-3-yl]-acrylic acid], the IC50 was in the range of 1000 to 10000 nM.
Turning to `Cn1cc(/C=C/C(=O)O)c2c(Oc3ccc(F)c(F)c3)cccc21` [Compound A42, (E)-3-[4-(3,4-Difluoro-phenoxy)-1-methyl-1H-indol-3-yl]-acrylic acid], the IC50 fell in the range of 1000 to 10000 nM.
Consider `Cn1cc(/C=C/C(=O)O)c2c(Oc3ccc(Cl)c(F)c3)cccc21` [Compound A43, (E)-3-[4-(4-Chloro-3-fluoro-phenoxy)-1-methyl-1H-indol-3-yl]-acrylic acid], for which the concentration for half-maximal inhibition (IC50) was less than 1000 nM.
As for `Cn1cc(/C=C/C(=O)O)c2c(Oc3ccc4ccccc4c3)cccc21` [Compound A44, (E)-3-[1-Methyl-4-(naphthalen-2-yloxy)-1H-indol-3-yl]-acrylic acid], the figure is less than 1000 nM; as for `Cn1cc(/C=C/C(=O)O)c2c(Oc3ccc(Cl)cc3F)cccc21` [Compound A45, (E)-3-[4-(4-Chloro-2-fluoro-phenoxy)-1-methyl-1H-indol-3-yl]-acrylic acid], less than 1000 nM; as for `Cn1cc(/C=C/C(=O)O)c2c(Oc3ccc(F)cc3Cl)cccc21` [Compound A46, (E)-3-[4-(2-Chloro-4-fluoro-phenoxy)-1-methyl-1H-indol-3-yl]-acrylic acid], 1000 to 10000 nM.
To `CCOC(=O)C12CCCC(/C=C/C(=O)O)=C1N(Cc1ccc(Cl)cc1Cl)C(=O)C2` (stereo not shown) [Compound A47, 7-((E)-2-Carboxy-vinyl)-1-(2,4-dichloro-benzyl)-2-oxo-1,2,3,4,5,6-hexahydro-indole-3a-carboxylic acid ethyl ester] belongs less than 1000 nM.
In the case of `CC12CCCC(CCC(=O)O)C1N(Cc1ccc(F)c(F)c1)C(=O)C2` (stereo not shown) [Compound A49, 3-[1-(3,4-Difluoro-benzyl)-3a-methyl-2-oxo-octahydro-indol-7-yl]-propionic acid], the half-inhibitory concentration (IC50) was in the range of 1000 to 10000 nM.
For the compound `CC12CCCC(CCC(=O)O)=C1N(Cc1ccc(F)c(F)c1)C(=O)C2` (stereo not shown) [Compound A50, 3-[1-(3,4-Difluoro-benzyl)-3a-methyl-2-oxo-2,3,3a,4,5,6-hexahydro-1H-indol-7-yl]-propionic acid], the IC50 lay within 1000 to 10000 nM.
For the compound `O=C(O)C(=O)Nc1cccc2c1N(Cc1ccc3ccccc3c1)C(=O)CO2` [Compound A51, N-(4-Naphthalen-2-ylmethyl-3-oxo-3,4-dihydro-2H-benzo[1,4]oxazin-5-yl)-oxalamic acid], the IC50 is greater than 10000 nM.
Consider `O=C(O)/C=C/c1cccc2ccn(Cc3ccc4ccccc4c3)c12` [Compound A53, (E)-3-(1-Naphthalen-2-ylmethyl-1H-indol-7-yl)-acrylic acid], for which the IC50 is less than 1000 nM.
Turning to `CN(C)Cc1cn(Cc2ccc3ccccc3c2)c2c(/C=C/C(=O)O)cccc12` [Compound A55], the IC50 was in the range of 1000 to 10000 nM.
As for `O=C(O)/C=C/c1cccc2c1N(Cc1ccc3ccccc3c1)C(=O)C2=O` [Compound A56, (E)-3-(1-Naphthalen-2-ylmethyl-2,3-dioxo-2,3-dihydro-1H-indol-7-yl)-acrylic acid], the figure is less than 1000 nM.
As for `Cc1cn(Cc2cn3ccccc3n2)c2c(/C=C/C(=O)O)cc(F)cc12` [Compound A57, (E)-3-(5-Fluoro-1-imidazo[1,2-a]pyridin-2-ylmethyl-3-methyl-1H-indol-7-yl)-acrylic acid], the figure is 1000 to 10000 nM.
Regarding `O=C(O)CCc1cccc2ccn(Cc3ccc4ccccc4c3)c12` [Compound A58, 3-(1-Naphthalen-2-ylmethyl-1H-indol-7-yl)-propionic acid], the concentration for half-maximal inhibition (IC50) is less than 1000 nM.
As for `O=C(O)/C=C/c1cccc2c1N(Cc1ccc(F)c(F)c1)C(=O)C2=O` [Compound A60, (E)-3-[1-(3,4-Difluoro-benzyl)-2,3-dioxo-2,3-dihydro-1H-indol-7-yl]-acrylic acid], the figure is 1000 to 10000 nM.
As for `O=C(O)/C=C/c1cccc2c1N(Cc1ccc(Cl)cc1Cl)C(=O)C2(CO)CO` [Compound A62, (E)-3-[1-(2,4-Dichloro-benzyl)-3,3-bis-hydroxymethyl-2-oxo-2,3-dihydro-1H-indol-7-yl]-acrylic acid], the figure is less than 1000 nM; as for `Cc1cc2c(=O)n(C)c(=O)n(CCC(=O)O)c2n1Cc1ccc(Cl)cc1Cl` [Compound A63, 3-[7-(2,4-Dichloro-benzyl)-3,6-dimethyl-2,4-dioxo-2,3,4,7-tetrahydro-pyrrolo[2,3-d]pyrimidin-1-yl]-propionic acid], 1000 to 10000 nM; as for `Cc1cn(Cc2ccc(Cl)cc2Cl)c2c(/C=C/C(O)(C(F)(F)F)C(F)(F)F)cc(F)cc12` [Compound A64, (E)-4-[1-(2,4-Dichloro-benzyl)-5-fluoro-3-methyl-1H-indol-7-yl]-1,1,1-trifluoro-2-trifluoromethyl-but-3-en-2-ol], 1000 to 10000 nM.
